Reference: US7402611B1, “Use of amino acids for making medicines for treating to insulin-resistance” (Innodia Inc., priority 1999, dated 2008)
Entries after “also recorded” stand apart in the source; their conditions may differ.

Legend:
PI 3-kinase [1] = experiment: PI 3-kinase activity of the liver (anti-IRS-1 immunoprecipitates), normal rats; type: in vivo, rat; settings: normal Wistar rats, i.p., insulin 100 U/kg, 4-OH-Ile 18 mg/kg, 15 min after injection; p<0.05
Description: (§1) The PI 3-kinase activity was measured on immunoprecipitates carried out with the anti-IRS-1 antibody. This made it possible to determine the enzymatic activity associated with the action of insulin and to compare it to the action induced by 4-OH-Ile. Normal male Wistar rats (IFFA CREDO strain, France) received, via intraperitoneal injection, either ordinary insulin on its own (100 U/kg) or 4-OH-Ile on its own (18 mg/kg), or insulin combined with 4-OH-Ile in the same doses. The control rats received sodium chloride at 9‰ via intraperitoneal route. Fifteen minutes after the injection, the animals were sacrificed and the peripheral tissues (liver, muscle) were immediately removed and frozen in liquid nitrogen. […] After solubilisation, the supernatants are immunoprecipitated with anti-IRS-1 and the PI 3-kinase activity is measured in the immunoprecipitate. […] The product of the reaction is subjected to thin layer chromatography (TLC plate) and the levels of phosphorylation of PI are measured by a STORM phospho-imager (Molecular Dynamics). The activity is expressed in arbitrary units given by the apparatus (conversion of the radioactivity to luminescence by means of a laser beam).

PI 3-kinase [2] = experiment: PI 3-kinase activity of the liver in type 2 diabetic rats; type: in vivo, rat; settings: liver of rats with type 2 diabetes; p<0.05 for 4-OH-Ile
Description: (§2) For the determination of the PI 3-kinase activity, the tissues are ground in a buffer containing protease and phosphatase inhibitors as well as a solubilising agent (Triton), as described by Taouis et al., J. Biol. Chem., 269, 14912, 1994. After solubilisation, the supernatants are immunoprecipitated with anti-IRS-1 and the PI 3-kinase activity is measured in the immunoprecipitate. In fact, the reaction is initiated by the addition of an artificial substrate of the enzyme: phosphatidylinositol (PI) and (^33P) gamma ATP. The product of the reaction is subjected to thin layer chromatography (TLC plate) and the levels of phosphorylation of PI are measured by a STORM phospho-imager (Molecular Dynamics). The activity is expressed in arbitrary units given by the apparatus (conversion of the radioactivity to luminescence by means of a laser beam). Comparison of the Effects of Insulin and Those of 4-OH-Ile on the PI 3-Kinase Activity of the Muscle and the Liver Removed from Rats with Type 2 Diabetes (Masiello et al., Diabetes 47, 224, 1998)

IRS-1 = experiment: Phosphorylation of IRS-1 in the liver of normal rats; type: in vivo; settings: normal rat liver, single injection 200 μg/kg I.P.; comparable to insulin
PI 3-kinase [3] = experiment: PI 3-kinase activity of muscle (anti-IRS-1 immunoprecipitates), normal rats; type: in vivo, rat; settings: normal Wistar rats, i.p., insulin 100 U/kg, 4-OH-Ile 18 mg/kg, 15 min after injection
Description: as §1

[4] = system: PI 3-kinase associated with the insulin receptor; experiment: PI 3-kinase activity associated with the insulin receptor in the liver of a normal rat; type: in vivo; settings: 18 mg/kg I.P., p<0.05
Description: as §2, with “beam). The PI 3-kinase activities” for “beam). Comparison”, “the PDGF receptor and” for “the Effects”, “of the insulin receptor in the presence or the absence” for “of Insulin and Those”, “4-OH-Ile (18 mg/kg I.P.) were compared following” for “4-OH-Ile on”, “the protocol already described.” for “the PI 3-Kinase Activity of the Muscle and the Liver Removed from Rats with Type 2 Diabetes (Masiello et al., Diabetes 47, 224, 1998)”

PI 3-kinase [5] = experiment: Basal PI 3-kinase activity of the liver of obese Zucker rats (fa/fa) after chronic administration; type: in vivo, rat; settings: 50 mg/kg i.p. for 4 weeks, sacrificed 17 hours after last administration
Description: as §2, with “During chronic administration for 4 weeks of 4-OH-Ile (50 mg/kg by intraperitoneal route) in obese Zucker rats (fa/fa), the PI 3-kinase activity” for “Comparison”, “liver was measured at” for “Effects of Insulin and Those of 4-OH-Ile on”, “end” for “PI 3-Kinase Activity”, “treatment.” for “Muscle and the Liver Removed from Rats with Type 2 Diabetes (Masiello et al., Diabetes 47, 224, 1998)”

[6] = Basal insulinemia and glycemia during chronic administration in type 2 diabetic rats; type: in vivo, rat
Description: The beneficial effect of 4-hydroxyisoleucine against relative hyperinsulinemia has been researched in vivo during chronic administration (for one month) of plant amino acid (25 mg/kg/day, by intraperitoneal route) on rats made non insulin dependant diabetic (type 2 diabetes) by joint injections of nicotinamide and streptozotocin (Masiello et al., Diabetes, 47, 224, 1998). Regular blood samples are taken from the caudal vein of the rats made it possible to evaluate the level of plasmatic insulin using a radio-immunological method (Herbert et al., J. Clin. Endocr., 25. 1375, 1965), 15 hours after injection of the product which took place at 5.30 pm. In these same samples, the plasmatic glucose level was measured using an enzymatic method (Trinder P., J. Clin. Pathol. 22, 158, 1969).

Water solubility = type: physicochemical
insulin receptor = experiment: Bonding of insulin on its receptor in hepatic LMH cell lines; type: binding; settings: LMH cells (chicken hepatocarcinoma), competition with insulin
Text: FIG. 4, the bonding of insulin on its receptor in hepatic LMH cell lines, In FIG. 4 the comparative results concerning the bonding of isoleucine and 4-OH-Ile are given. The LMH cells used in these trials are from chicken hepatocarcinoma (Kawaguchi T. et al., Cancer Res., 47, 4460, 1987).

PI 3-kinase [7] = experiment: PI 3-kinase activity of the muscle in type 2 diabetic rats; type: in vivo, rat; settings: muscle of rats with type 2 diabetes; p<0.01 for 4-OH-Ile
Description: as §2

insulin receptor (IR) = experiment: Phosphorylation of the insulin receptor in the liver of normal rats; type: in vivo; settings: normal rat liver, single injection 200 μg/kg I.P.; comparable to insulin
[8] = system: phosphatase activity associated with IRS-1; experiment: Phosphatase activity associated with IRS-1 in the liver of a normal rat; type: biochemical; settings: 200 μmol/1, p<0.05
Description: The phosphatase activity was measured on the immunoprecipitates carried out with the anti-IRS-1 antibody and insulin anti-receptor. The solubilisation protocol is the same as that for PI 3-kinase following the methodology described by Taouis et al. (J. Biol. Chem., 269, 14912, 1994). After immunoprecipitation, the phosphatase activity was measured according to the method described by Chen. et al. (J. Biol. Chem., 272, 8026, 1997). With the aim of better locating the action site of the 4-OH-Ile, its impact on phosphatase activity was studied. The phosphatase activity associated with IRS-1 was measured.

Q: What does the source list for `CC(O)C(C)C(N)C(=O)O` (stereo not drawn) [4-OH-Ile, 4-hydroxyisoleucine]?
A: hepatic PI 3-kinase activity (PI 3-kinase [1]): significantly stimulate; hepatic PI 3-kinase activity (PI 3-kinase [2]): the same effect as insulin with the same intensity; also recorded: significantly stimulates; activation (phosphorylation) of IRS-1 (IRS-1): induces the activation; PI 3-kinase activity of muscle (PI 3-kinase [3]): has a comparable effect; PI 3-kinase activity associated with the insulin receptor [4]: the only one increased; basal activity of PI 3-kinase of the liver (PI 3-kinase [5]): is increased; insulinemia (plasmatic insulin) ([6]; type 2 diabetic rats (nicotinamide/streptozotocin), 25 mg/kg/day i.p. for one month, 15 hours after injection): significantly lowering; glycemia ([6]; type 2 diabetic rats, 25 mg/kg/day i.p., at the end of the treatment): slight reduction; plasmatic insulin after cessation of the treatment ([6]; type 2 diabetic rats, after cessation of 25 mg/kg/day i.p. treatment): again rises to regain values close to those observed before the treatment; solubility in water (Water solubility): hydrosoluble; bonding to the insulin membrane receptor of the hepatocyte (insulin receptor): has no bond with this receptor; also recorded: does not recognise the insulin receptor; muscular PI 3-kinase activity (PI 3-kinase [7]): the same effect as insulin with the same intensity; also recorded: significantly stimulates; activation (phosphorylation) of the insulin receptor (IR) (insulin receptor (IR)): induces the activation; phosphatase activity associated with IRS-1 [8]: significantly inhibits

Q: For insulin [reference compound], which “hepatic PI 3-kinase activity” value (PI 3-kinase [1]) is on record?
A: significantly stimulate

Q: And the “hepatic PI 3-kinase activity” value (PI 3-kinase [2])?
A: activates

Q: What about the “PI 3-kinase activity of muscle” value (PI 3-kinase [3]) of the same compound?
A: clearly stimulates

Q: And the “muscular PI 3-kinase activity” value (PI 3-kinase [7])?
A: activates
